These results are taken from EP4620959A1, “CYCLIC COMPOUNDS USED AS MULTI-TARGET KINASE INHIBITORS AND PREPARATION METHOD THEREFOR” (Shanghai Institute of Organic Chemistry, Chinese Academy of …, priority 2022, dated 2024).

For one experiment, the target named is LRRK2 wt (Homo sapiens, UniProt Q5S007). Put plainly: Kinase activity inhibition assay (ADP-Glo), LRRK2 wt. Type of experiment: biochemical. To be noted: ATP 20 µM, compound at 100 nM. As for the experimental part: The kinase activity inhibition assay was performed by ICE Bioscience (Beijing) using ADP-Glo and HTRF methods.
LRRK2 wt, sequence (Q5S007 whole entry): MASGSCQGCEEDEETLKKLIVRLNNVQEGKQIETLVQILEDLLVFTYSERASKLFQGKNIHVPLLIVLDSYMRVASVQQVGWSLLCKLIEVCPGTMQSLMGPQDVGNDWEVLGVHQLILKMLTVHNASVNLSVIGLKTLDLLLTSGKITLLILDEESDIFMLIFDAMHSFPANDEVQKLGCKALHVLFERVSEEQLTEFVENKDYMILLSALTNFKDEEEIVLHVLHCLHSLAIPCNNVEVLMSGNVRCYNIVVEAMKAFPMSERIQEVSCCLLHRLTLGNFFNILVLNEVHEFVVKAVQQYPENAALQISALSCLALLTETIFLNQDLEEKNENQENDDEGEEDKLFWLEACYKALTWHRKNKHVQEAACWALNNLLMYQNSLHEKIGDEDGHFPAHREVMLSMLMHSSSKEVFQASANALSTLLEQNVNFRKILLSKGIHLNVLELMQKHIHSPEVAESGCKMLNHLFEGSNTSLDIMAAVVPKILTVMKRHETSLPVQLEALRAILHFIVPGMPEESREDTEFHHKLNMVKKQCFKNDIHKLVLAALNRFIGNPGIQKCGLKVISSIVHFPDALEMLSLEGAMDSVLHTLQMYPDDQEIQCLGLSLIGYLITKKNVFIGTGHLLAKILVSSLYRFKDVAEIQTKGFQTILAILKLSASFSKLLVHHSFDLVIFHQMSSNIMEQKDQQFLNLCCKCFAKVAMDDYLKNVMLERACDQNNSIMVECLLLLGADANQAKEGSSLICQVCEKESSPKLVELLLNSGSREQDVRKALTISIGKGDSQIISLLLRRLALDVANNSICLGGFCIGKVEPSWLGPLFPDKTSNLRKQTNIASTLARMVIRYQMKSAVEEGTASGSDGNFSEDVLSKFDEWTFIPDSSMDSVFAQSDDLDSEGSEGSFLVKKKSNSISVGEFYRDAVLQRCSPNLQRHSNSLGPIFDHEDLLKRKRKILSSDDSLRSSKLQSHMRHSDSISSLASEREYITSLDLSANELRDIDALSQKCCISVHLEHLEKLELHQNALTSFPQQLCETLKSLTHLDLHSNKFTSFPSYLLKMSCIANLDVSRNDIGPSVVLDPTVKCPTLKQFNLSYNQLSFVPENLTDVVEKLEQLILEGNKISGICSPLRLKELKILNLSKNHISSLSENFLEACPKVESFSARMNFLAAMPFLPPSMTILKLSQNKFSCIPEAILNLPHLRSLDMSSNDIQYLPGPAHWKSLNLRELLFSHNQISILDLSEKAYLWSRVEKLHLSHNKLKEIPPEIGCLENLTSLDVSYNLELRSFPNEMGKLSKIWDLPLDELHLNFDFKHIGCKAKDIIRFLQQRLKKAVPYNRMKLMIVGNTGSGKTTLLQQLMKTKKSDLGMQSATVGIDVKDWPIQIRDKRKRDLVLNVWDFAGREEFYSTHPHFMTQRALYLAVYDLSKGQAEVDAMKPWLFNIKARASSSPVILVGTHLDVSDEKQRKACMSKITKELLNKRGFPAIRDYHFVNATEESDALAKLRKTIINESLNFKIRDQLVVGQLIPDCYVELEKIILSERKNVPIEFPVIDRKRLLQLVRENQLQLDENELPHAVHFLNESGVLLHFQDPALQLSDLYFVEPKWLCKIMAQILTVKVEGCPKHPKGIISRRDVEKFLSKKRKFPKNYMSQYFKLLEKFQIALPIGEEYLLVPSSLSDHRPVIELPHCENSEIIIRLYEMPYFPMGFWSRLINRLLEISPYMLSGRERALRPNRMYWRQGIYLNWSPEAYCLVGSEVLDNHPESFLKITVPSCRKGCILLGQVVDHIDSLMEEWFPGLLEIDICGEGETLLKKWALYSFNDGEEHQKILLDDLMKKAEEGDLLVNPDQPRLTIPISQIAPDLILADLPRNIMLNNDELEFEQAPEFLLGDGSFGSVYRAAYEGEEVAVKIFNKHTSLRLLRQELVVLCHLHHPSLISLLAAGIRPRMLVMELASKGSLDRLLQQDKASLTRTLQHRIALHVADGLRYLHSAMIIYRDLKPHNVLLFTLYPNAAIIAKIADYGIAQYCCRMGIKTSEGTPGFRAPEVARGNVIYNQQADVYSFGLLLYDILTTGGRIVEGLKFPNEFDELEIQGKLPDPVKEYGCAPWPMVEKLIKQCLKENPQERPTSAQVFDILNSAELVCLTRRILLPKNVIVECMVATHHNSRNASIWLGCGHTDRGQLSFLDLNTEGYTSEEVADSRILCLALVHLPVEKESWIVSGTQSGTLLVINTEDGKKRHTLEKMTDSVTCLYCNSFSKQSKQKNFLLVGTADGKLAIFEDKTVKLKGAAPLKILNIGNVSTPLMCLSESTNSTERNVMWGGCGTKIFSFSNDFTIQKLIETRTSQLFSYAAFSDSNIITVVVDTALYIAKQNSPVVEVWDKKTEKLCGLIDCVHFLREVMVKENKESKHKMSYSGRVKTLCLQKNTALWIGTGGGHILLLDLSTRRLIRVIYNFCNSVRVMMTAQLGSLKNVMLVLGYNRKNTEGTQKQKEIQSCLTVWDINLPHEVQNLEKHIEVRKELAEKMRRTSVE
Table 1.1-1 ADP-Glo Buffer
Table 1.2-1 ADP-Glo Kinase and Substrate Formulation
SD is the standard error, and AVE is the average value. Table 2-1 LRRK2 Activity Inhibition Test Results
(In general: ADP-Glo turns the ADP formed in a reaction into a luminescent signal.)
As for `Cc1nn2cc1Nc1ncc(C(F)(F)F)c(n1)NC1CCCC(C1)NC(=O)C2(C)C` (stereo not shown) [Example T-42, (5^3R,E)-1^3,8,8-Trimethyl-3^5-(trifluoromethyl)-1^1H-2,4,6-triaza-3(2,4)-pyrimidina-1(4,1)-pyrazola-5(1,3)-cyclohexacyclooctan-7-one], the “LRRK2 wt inhibition rate at 100 nM” value amounted to 42.08%@100 nM.

Staying with this experiment, now noted: read-out: LRRK2 wt inhibition rate at 100 nM, ATP 20 µM, compound at 100 nM.
As a reminder, the inhibition is the relative decrease from the control value, in per cent. On to `Cc1nn2cc1Nc1ncc(C(F)(F)F)c(n1)NCCCOC(=O)C2(C)C` [Example T-37, (E)-3^3,4,4-Trimethyl-1^5-(trifluoromethyl)-3^1H-6-oxa-2,10-diaza-1(2,4)-pyrimidina-3(4,1)-pyrazolacyclodecan-5-one], for which the inhibition at 0.1 µM was 83.4%.
Still for that read-out and setting: the value for `Cc1nn2cc1Nc1ncc(C(F)(F)F)c(n1)NCCCn1ncc(n1)C2(C)C` [Example T-17, (3^4E,5^3Z)-3^3,4,4-Trimethyl-1^5-(trifluoromethyl)-3^1H,5^2H-2,9-diaza-1(2,4)-pyrimidina-5(4,2)-triazole-3(4,1)-pyrazolacyclononane] was 96.9%.
In the case of `Cc1nn2cc1Nc1ncc(C(F)(F)F)c(n1)NCC(F)(F)COC(=O)C2(C)C` [Example T-43, (E)-8,8-Difluoro-3^3,4,4-trimethyl-1^5-(trifluoromethyl)-3^1H-6-oxa-2,10-diaza-1(2,4)-pyrimidina-3(4,1)-pyrazolacyclodecan-5-one], the inhibition at 0.1 µM is 64.6%.
For the molecule `Cc1nn2cc1Nc1ncc(C(F)(F)F)c(n1)NCCCn1cc(nn1)C2(C)C` [Example T-16, (3^4E,5^4Z)-3^3,4,4-Trimethyl-1^5-(trifluoromethyl)-3^1H,5^1H-2,9-diaza-1(2,4)-pyrimidina-5(4,1)-triazole-3(4,1)-pyrazolacyclononane], the inhibition at 0.1 µM came to 86.1%.
As for `Cc1nn2cc1Nc1ncc3c(C(F)(F)F)cc(n3n1)CCCNC(=O)C2(C)C` [Example T-29, (1^1Z,3^4E)-3^3,4,4-Trimethyl-1^5-(trifluoromethyl)-3^1H-2,6-diaza-1(2,7)-pyrrolo[2,1-f][1,2,4]triazine-3(4,1)-pyrazolacyclononan-5-one], the inhibition at 0.1 µM was 95.6%.
Regarding `Cc1nn2cc1Nc1ncc3c(n1)c(nn3C)CCCNC(=O)C2(C)C` [Example T-19, (E)-1^1,3^3,4,4-Tetramethyl-1^1H,3^1H-2,6-diaza-1(5,3)-pyrazolo[4,3-d]pyrimidine-3(4,1)-pyrazinacyclononan-5-one], the inhibition at 0.1 µM was 11.6%.
With `Cc1nn2cc1Nc1ncc3[nH]nc(c3n1)CCCNC(=O)C2(C)C` [Example T-9, (E)-3^3,4,4-Trimethyl-1^1H,3^1H-2,6-diaza-1(5,3)pyrazolo[4,3-d]pyrimidine-3(4,1)-pyrazolacyclononan-5-one], the inhibition at 0.1 µM was -0.5%.
The same measure, in the same setting: next, `Cc1nn2cc1Nc1ncc(C(F)(F)F)c(n1)NCCCOCCNC(=O)C2(C)C` [Example T-2, (E)-3^3,4,4-Trimethyl-1^5-(trifluoromethyl)-3^1H-9-oxa-2,6,13-triaza-1(2,4)-pyrimidina-3(4,1)-pyrazolacyclotridecan-5-one]: 55%.
As to `Cc1nn2cc1Nc1ncc(C(F)(F)F)c(n1)NCCn1cc(nn1)CC2(C)C` [Example T-35, (3^4E,6^4Z)-3^3,4,4-Trimethyl-1^5-(trifluoromethyl)-3^1H,6^1H-2,9-diaza-1(2,4)-pyrimidina-6(4,1)-triazole-3(4,1)-pyrazolacyclononane], the inhibition at 0.1 µM came out at 9.41%.
On to `Cc1nn2cc1Nc1ncc3nn(C)c(c3n1)CCCNC(=O)C2(C)C` [Example T-20, (1^3E,1^4Z,3^4E)-1^2,3^3,4,4-Tetramethyl-1^2H,3^1H-2,6-diaza-1(5,3)-pyrazolo[4,3-d]pyrimidine-3(4,1)-pyrazinacyclononan-5-one], for which the inhibition at 0.1 µM stood at 0.84%.
With `CC1(C)C(=O)NCCCc2cc(Cl)c3cnc(nn23)Nc2cn1nc2Cl` [Example T-27, (1^1Z,3^4E)-1^53^3-Dichloro-4,4-dimethyl-3^1H-2,6-diaza-1(2,7)-pyrrolo[2,1-f][1,2,4]triazine-3(4,1)-pyrazolacyclononan-5-one], the inhibition at 0.1 µM came out at 88%.
In the case of `Cc1nn2cc1Nc1ncc(C(F)(F)F)c(n1)NC(C)CCNC(=O)C2(C)C` (stereo not shown) [Example T-46, (E)-3^3,4,4,9-Tetramethyl-1^5-(trifluoromethyl)-3^1H-2,6,10-triaza-1(2,4)-pyrimidina-3(4,1)-pyrazolacyclodecan-5-one], the inhibition at 0.1 µM is 95.1%.
For the molecule `Cc1nn2cc1Nc1ncc3c(C#N)cc(n3n1)CCCNC(=O)C2(C)C` [Example T-30, (1^1Z,3^4E)-3^3,4,4-Trimethyl-5-oxo-3^1H-2,6-diaza-1(2,7)-pyrrolo[2,1-f][1,2,4]triazine-3(4,1)-pyrazolacyclononan-1^5-carbonitrile], the inhibition at 0.1 µM worked out at 61.3%.
Turning to `Cc1nn2cc1Nc1ncc3ccc(n3n1)CCCNC(=O)C2(C)C` [Example T-24, (1^1Z,3^4E)-3^3,4,4-Trimethyl-3^1H-2,6-diaza-1(2,7)-pyrrolo[2,1-f][1,2,4]triazine-3(4,1)-pyrazolacyclononan-5-one], the inhibition at 0.1 µM was 57.3%.
For `Cc1nn2cc1Nc1ncc3c(n1)c(cn3C)CCCNC(=O)C2(C)C` [Example T-21, (E)-1^5,3^3,4,4-Tetramethyl-1^5H,3^1H-2,6-diaza-1(2,7)-pyrrolo[3,2-d]pyrimidine-3(4,1)-pyrazolacyclononan-5-one], the inhibition at 0.1 µM came to 60.1%.
The same measure, in the same setting: the value for `Cc1nn2cc1Nc1ncc(C(F)(F)F)c(n1)NCCCN(C)CC2(C)C` [Example T-34, (E)-3^3,4,4,6-Tetramethyl-1^5-(trifluoromethyl)-3^1H-2,6,10-triaza-1(2,4)-pyrimidina-3(4,1)-pyrazolacyclodecane] was -12.7%; that for `Cc1nn2cc1Nc1ncc(C(F)(F)F)c(n1)N(C)CCCN(C)C(=O)C2(C)C` [Example T-31, (E)-3^3,4,4,6,10-Pentamethyl-1^5-(trifluoromethyl)-3^1H-2,6,10-triaza-1(2,4)-pyrimidina--3(4,1)-pyrazolacyclodecan-5-one] was 8.85%; that for `Cc1nn2cc1Nc1ncc(C(F)(F)F)c(n1)N[C@H]1CC[C@H](CC1)NC(=O)C2(C)C` [Example T-41, (5^1s,5^4s,E)-1^3,8,8-Trimethyl-3^5-(trifluoromethyl)-1^1H-2,4,6-triaza-3(2,4)-pyrimidina-1(4,1)-pyrazola-5(1,4)-cyclohexacyclooctan-7-one] was 20.8%.
Still for that read-out and setting: next, `Cc1nn2cc1Nc1ncc3c(Cl)cn(c3n1)CCCCN(C)C(=O)C2(C)C` [Example T-23, (E)-1^5-Chloro-3^3,4,4,6-tetramethyl-1^7H,3^1H-2,6-diaza-1(2,7)-pyrrolo[2,3-d]pyrimidine-3(4,1)-pyrazolacyclodecan-5-one]: 19.1%; `Cc1nn2cc1Nc1ncc3c(Cl)cc(n3n1)CCCCNC(=O)C2(C)C` [Example T-26, (1^1Z,3^4E)-1^5-Chloro-3^3,4,4-trimethyl-3^1H-2,6-diaza-1(2,7)-pyrrolo[2,1-f][1,2,4]triazine-3(4,1)-pyrazolacyclodecan-5-one]: 98.4%.
Take `Cc1nn2cc1Nc1ncc(C(F)(F)F)c(n1)NCC1(CC1)CNC(=O)C2(C)C` [Example T-44, (E)-3',4',4'-Trimethyl-5'-(trifluoromethyl)spiro[cyclopropane-8'-2,6,10-triaza-1(2,4)-pyrimidina-3(4,1)-pyrazolacyclodecan]-5'-one]: the inhibition at 0.1 µM is 56.8%.
